# Experiments:
# Assay type in all cases: in vivo
# [1] = test system: corn; test: Safety testing on corn, stem and leaf spray in greenhouse; conditions: for Corn (%) safety (crop damage): stem and leaf spray
# Method: (§1) The seeds of corn and rice were sown into nutrient soil in plastic cups, respectively, then covered with soil, compacted, watered, and further cultivated in a greenhouse by conventional methods. The stems and leaves of the crops were sprayed when the crops reached the 2- to 3-leaf stage. The test compounds of the present application were dissolved in acetone, followed by addition of Tween 80. The solution was then diluted with a certain amount of water to a certain solubility, and sprayed onto the plants using a spray tower. The test was repeated three times. After drying naturally in the shade, the plants were put in a greenhouse and managed according to conventional methods. The growth and development of corn and rice were observed, and the safety of the test agent on corn and rice was checked visually periodically. A safety grading standard was represented by 0-100%, with “O” representing no damage to crops, and “100%” representing complete killing or severe inhibition of crops.
# [2] = test system: rice; test: Safety testing on rice, stem and leaf spray in greenhouse; conditions: for Rice (%) safety (crop damage): stem and leaf spray
# Method: as §1
# [3] = test system: abutilon; test: Test of herbicidal activity, post-seedling stem and leaf spray in greenhouse, abutilon; conditions: for Abutilon (%) control effect: post-seedling stem and leaf spray
# Method: (§2) Seeds of broadleaf weeds (abutilon, Solanum nigrum) or gramineous weeds (crabgrass, barnyard grass) were sown into nutrient soil in plastic cups, respectively, and then covered with soil, compacted, watered, and further cultivated in a greenhouse by conventional methods. The stems and leaves of the weeds were sprayed when the weeds reached the 2- to 3-leaf stage. The test compounds of the present application were dissolved in acetone respectively, followed by addition of Tween 80. The solution was diluted with a certain amount of water to a certain solubility, and then sprayed onto the plants using a spray tower. The test was repeated three times. After drying naturally in the shade, the plants were put in a greenhouse and managed according to conventional methods. The growth and development of weeds were observed, and the control effect of the test agent on weeds was checked visually periodically, which was expressed by 0-100%, with “0” representing no control effect, and “100%” representing complete killing or severe inhibition.
# [4] = test system: Solanum nigrum; test: Test of herbicidal activity, post-seedling stem and leaf spray in greenhouse, Solanum nigrum; conditions: for Solanum nigrum (%) control effect: post-seedling stem and leaf spray
# Method: as §2
# [5] = test system: crabgrass; test: Test of herbicidal activity, post-seedling stem and leaf spray in greenhouse, crabgrass; conditions: for Crabgrass (%) control effect: post-seedling stem and leaf spray
# Method: as §2
# [6] = test system: barnyard grass; test: Test of herbicidal activity, post-seedling stem and leaf spray in greenhouse, barnyard grass; conditions: for Barnyard grass (%) control effect: post-seedling stem and leaf spray
# Method: as §2
# [7] = at different doses, as compared to Control compounds A, B, and C, summary of Table 6
# [8] = at different doses, summary of Table 5
structure (smiles),measurement,setting,value
CCS(=O)(=O)c1ccc(C(=O)c2c(C)nn(C)c2OC(=O)c2cc(C)nn2C)c(Cl)c1Cn1nc(C)oc1=O [Compound 224],inhibitory effect on corn (crop safety),[1]; [7],no significant inhibitory effect
same,Corn (%) safety (crop damage),[1]; dose 37.5 g a.i/ha,0%
same,Corn (%) safety (crop damage),[1]; dose 75 g a.i/ha,0%
same,Corn (%) safety (crop damage),[1]; dose 150 g a.i/ha,0%
same,Corn (%) safety (crop damage),"[1]; dose 300 g a.i/ha, 0 = no damage to crops, 100% = complete killing or severe inhibition",2%
same,inhibitory effect on rice (crop safety),[2]; [7],no significant inhibitory effect
same,Rice (%) safety (crop damage),[2]; dose 37.5 g a.i/ha,0%
same,Rice (%) safety (crop damage),[2]; dose 75 g a.i/ha,0%
same,Rice (%) safety (crop damage),[2]; dose 150 g a.i/ha,2%
same,Rice (%) safety (crop damage),[2]; dose 300 g a.i/ha,5%
same,"herbicidal activity against abutilon compared with Control compounds A, B and C",[3]; [8],better herbicidal activities
same,Abutilon (%) control effect,[3]; dose 37.5 g a.i/ha,55%
same,Abutilon (%) control effect,[3]; dose 75 g a.i/ha,80%
same,Abutilon (%) control effect,[3]; dose 150 g a.i/ha,90%
same,Abutilon (%) control effect,"[3]; dose 300 g a.i/ha, 0 = no control effect, 100% = complete killing or severe inhibition",92%
same,"herbicidal activity against Solamum nigrum compared with Control compounds A, B and C",[4]; [8],better herbicidal activities
same,Solanum nigrum (%) control effect,[4]; dose 37.5 g a.i/ha,50%
same,Solanum nigrum (%) control effect,[4]; dose 75 g a.i/ha,70%
same,Solanum nigrum (%) control effect,[4]; dose 150 g a.i/ha,90%
same,Solanum nigrum (%) control effect,[4]; dose 300 g a.i/ha,93%
same,"herbicidal activity against crabgrass compared with Control compounds A, B and C",[5]; [8],better herbicidal activities
same,Crabgrass (%) control effect,[5]; dose 37.5 g a.i/ha,45%
same,Crabgrass (%) control effect,[5]; dose 75 g a.i/ha,65%
same,Crabgrass (%) control effect,[5]; dose 150 g a.i/ha,80%
same,Crabgrass (%) control effect,[5]; dose 300 g a.i/ha,84%
same,"herbicidal activity against barnyard grass compared with Control compounds A, B and C",[6]; [8],better herbicidal activities
same,Barnyard grass (%) control effect,[6]; dose 37.5 g a.i/ha,50%
same,Barnyard grass (%) control effect,[6]; dose 75 g a.i/ha,70%
same,Barnyard grass (%) control effect,[6]; dose 150 g a.i/ha,85%
same,Barnyard grass (%) control effect,[6]; dose 300 g a.i/ha,88%
